Results taken from patent publication US20250136568A1, “FUSED HETEROCYCLIC COMPOUNDS AS PI3KALPHA INHIBITORS” (Nanjing Zenshine Pharmaceuticals Co., Ltd., priority 2021, published 2025).
Read-outs that look alike come from different tables or passages of the source.

Key:
[1] = In vivo pharmacokinetics in mice; conditions: for clearance / bioavailability: male, CD1, mouse, plasma; for clearance: intravenous, 1 mg/kg; for bioavailability: oral, 5 mg/kg
Procedure: (§3) Dosing solutions were prepared at 0.5 mg/mL in 10% DMSO/10% HP—3-CD/80% water. A dosing solution was administered to Male CD1 mice (4-6 weeks, 20-30 g, 3 mice each group) via intravenous (TV) bolus at 1 mg/kg and by oral gavage (PO) at 5 mg/kg. The dose formulations were kept at room temperature and administrated within 30 mins for IV/PO. Blood samples (0.3 mL each time point) were collected into tubes containing ethylenediaminetetraacetic acid (K2EDTA) as the anticoagulant at 0, 0033, 0.083, 0.25, 05, 1, 2, 4, 8 and 24 hours post dose for IV administrated and 0, 0.083, 0.25, 0.5, 1, 2, 4, 8 and 24 hours post dose for PO administration. The blood sample were then centrifuged for 5 minutes in centrifuge refrigerated at 4° C. The samples were stored in a freezer at −75±15° C. prior to analysis. Concentrations of Compound in the plasma samples were analyzed using a LC-MS/MS method. WinNonlin (Phoenix™, version 8.3) or other similar software were used for pharmacokinetic calculations. The following pharmacokinetic parameters were calculated, whenever possible from the plasma concentration versus time data: MRT, Cmax, Tmax, AUClast, AUCinf, F %, Number of Points for Regression.

[2] = system: PI3Kα H1047R mutation cell line T-47D; test: Cell Proliferation IC50 Assay (CellTiter-Glo), T-47D; type: cell-based; conditions: T47D (H1047R), 72 hours, CellTiter-Glo, read-out: IC50 (μM) T47D
Procedure, shortened: (§1)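 Cells were seeded and left overnight, then exposed to serially diluted compound (200-fold final dilution) for 72 h at 37 °C, 5% CO2. Viability was read by CellTiter-Glo luminescence. Percent inhibition and IC50 were calculated from the signal.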

[3] = system: PI3Kα H1047R mutation cell line MDA-MB-453; test: Cell Proliferation IC50 Assay (CellTiter-Glo), MDA-MB-453; type: cell-based; conditions: Homo sapiens; MDA-MB-453 (H1047R), 72 hours, CellTiter-Glo; read-out: IC50 (μM) MDA-MB-453
Procedure, shortened: as §1

[4] = system: PI3Kα wide type cell line SK-BR-3; test: Cell Proliferation IC50 Assay (CellTiter-Glo), SK-BR-3; type: cell-based; conditions: SK-BR-3 (PI3Kα wild type), 72 hours, CellTiter-Glo, read-out: IC50 (μM) SK-BR-3
Procedure, shortened: as §1

[5] = biological target: PI3Kα WT (Homo sapiens, UniProt P42336); test: pAKT (S473) ELISA assay in WT cell line (SK-BR-3); type: cell-based; conditions: SK-BR-3 cells, two hours compound, IGF-1 50 ng/ml stimulation
Procedure: (§2) Cells were serum starved for 4 hours prior to compound treatment; compound solution was added to each well (3-fold serial dilution starting at desired concentration) for two hours in serum-free medium, followed by stimulation with IGF-1 for 60 minutes at a final concentration of 50 ng/ml as noted. After compound treatment and stimulation, discarded the supernatant and cells were lysed by cell lysis buffer (Cell Signaling Technology, #9803S). The lysate was transferred to the ELISA plate, the Phospho-AKT (Ser473) ELISA was performed as the manufacturer's directions (Cell Signaling Technology, #7160CA).

[6] = biological target: T1, PI3Kβ (Homo sapiens, UniProt P42338); test: Selectivity study, p-AKT (Ser473) HTRF assay in 786-O cells; type: cell-based; conditions: 786-O cell, 1 hour incubation, serum-free medium
T1 construct: endogenous in cells; host or cells: 786-O
Procedure: The following day, the complete medium was replaced with serum-free medium, 3-fold serial diluted compound solution in serum-free medium was added to each well according to the plate map. After 1 hour incubation, removed cell supernatant carefully and added supplemented lysis buffer (1×) for 45 min. The lysate was transferred to a 384-well small volume white plate, the CisBio Phospho-AKT (Ser473) HTRF assay was performed as the manufacturer's directions (Cisbio, #64AKSPEG).

[7] = biological target: PI3Kα H1047R mutant (Homo sapiens, UniProt P42336, H1047R); test: pAKT (S473) ELISA assay in PI3Kα H1047R mutant cell line (T47D); type: cell-based; conditions: T47D cells, two hours compound, IGF-1 50 ng/ml stimulation
Procedure: as §2

[8] = in vivo; conditions: male, CD1, mouse
Procedure: as §3

[9] = CD1 mice, IV bolus at 1 mg/kg and PO at 5 mg/kg

PI3Kα WT, sequence (P42336 whole entry): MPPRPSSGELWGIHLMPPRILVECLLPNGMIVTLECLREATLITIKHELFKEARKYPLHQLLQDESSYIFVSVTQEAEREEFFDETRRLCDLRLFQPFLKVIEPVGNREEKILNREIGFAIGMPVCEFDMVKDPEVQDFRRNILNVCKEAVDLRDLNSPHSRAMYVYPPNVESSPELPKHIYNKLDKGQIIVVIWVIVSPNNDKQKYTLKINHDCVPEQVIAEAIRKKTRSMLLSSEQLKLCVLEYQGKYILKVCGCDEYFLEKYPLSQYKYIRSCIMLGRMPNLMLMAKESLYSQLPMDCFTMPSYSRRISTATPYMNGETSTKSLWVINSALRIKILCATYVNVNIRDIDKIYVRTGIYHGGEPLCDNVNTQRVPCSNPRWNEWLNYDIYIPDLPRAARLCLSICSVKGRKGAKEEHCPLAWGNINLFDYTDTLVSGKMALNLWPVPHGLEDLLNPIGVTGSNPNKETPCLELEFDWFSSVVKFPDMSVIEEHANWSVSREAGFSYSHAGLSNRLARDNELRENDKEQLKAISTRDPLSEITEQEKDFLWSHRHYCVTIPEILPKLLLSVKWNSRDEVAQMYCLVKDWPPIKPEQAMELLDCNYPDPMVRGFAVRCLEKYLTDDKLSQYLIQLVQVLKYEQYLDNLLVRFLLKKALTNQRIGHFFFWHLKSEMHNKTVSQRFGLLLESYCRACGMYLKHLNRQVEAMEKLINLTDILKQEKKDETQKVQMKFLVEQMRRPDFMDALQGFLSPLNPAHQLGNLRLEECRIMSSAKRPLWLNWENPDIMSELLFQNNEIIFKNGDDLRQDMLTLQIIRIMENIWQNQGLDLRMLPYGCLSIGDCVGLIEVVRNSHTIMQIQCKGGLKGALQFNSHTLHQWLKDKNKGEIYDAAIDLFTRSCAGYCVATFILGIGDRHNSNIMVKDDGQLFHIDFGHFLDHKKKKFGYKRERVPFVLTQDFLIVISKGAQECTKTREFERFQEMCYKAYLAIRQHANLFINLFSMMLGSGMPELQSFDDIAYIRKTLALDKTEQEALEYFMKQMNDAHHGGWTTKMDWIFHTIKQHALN
PI3Kα WT, sequence (P27986 whole entry partner): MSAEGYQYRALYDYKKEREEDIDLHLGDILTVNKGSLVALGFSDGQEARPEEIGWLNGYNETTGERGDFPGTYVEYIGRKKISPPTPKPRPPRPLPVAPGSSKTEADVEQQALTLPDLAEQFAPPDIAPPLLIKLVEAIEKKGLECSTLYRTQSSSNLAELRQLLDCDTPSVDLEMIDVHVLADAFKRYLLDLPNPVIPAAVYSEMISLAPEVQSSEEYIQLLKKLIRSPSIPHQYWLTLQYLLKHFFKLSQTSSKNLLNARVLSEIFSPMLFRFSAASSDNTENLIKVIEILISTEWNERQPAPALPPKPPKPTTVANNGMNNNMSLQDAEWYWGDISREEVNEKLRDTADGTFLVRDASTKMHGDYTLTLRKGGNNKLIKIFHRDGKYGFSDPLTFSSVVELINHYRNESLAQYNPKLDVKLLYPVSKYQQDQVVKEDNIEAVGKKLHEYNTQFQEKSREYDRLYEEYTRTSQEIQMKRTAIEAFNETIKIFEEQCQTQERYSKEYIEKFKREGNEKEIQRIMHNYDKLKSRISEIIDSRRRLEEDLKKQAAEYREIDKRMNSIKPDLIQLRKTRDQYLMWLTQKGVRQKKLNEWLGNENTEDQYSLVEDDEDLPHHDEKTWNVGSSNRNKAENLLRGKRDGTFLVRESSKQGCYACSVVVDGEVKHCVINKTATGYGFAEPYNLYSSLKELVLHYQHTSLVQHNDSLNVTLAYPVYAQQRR
PI3Kα H1047R mutant, sequence (P42336 whole entry H1047R): as the sequence (P42336 whole entry) above, with H1047R counted along it
PI3Kα H1047R mutant, sequence (P27986 whole entry partner): as the sequence (P27986 whole entry partner) above
T1 sequence (P42338 whole entry): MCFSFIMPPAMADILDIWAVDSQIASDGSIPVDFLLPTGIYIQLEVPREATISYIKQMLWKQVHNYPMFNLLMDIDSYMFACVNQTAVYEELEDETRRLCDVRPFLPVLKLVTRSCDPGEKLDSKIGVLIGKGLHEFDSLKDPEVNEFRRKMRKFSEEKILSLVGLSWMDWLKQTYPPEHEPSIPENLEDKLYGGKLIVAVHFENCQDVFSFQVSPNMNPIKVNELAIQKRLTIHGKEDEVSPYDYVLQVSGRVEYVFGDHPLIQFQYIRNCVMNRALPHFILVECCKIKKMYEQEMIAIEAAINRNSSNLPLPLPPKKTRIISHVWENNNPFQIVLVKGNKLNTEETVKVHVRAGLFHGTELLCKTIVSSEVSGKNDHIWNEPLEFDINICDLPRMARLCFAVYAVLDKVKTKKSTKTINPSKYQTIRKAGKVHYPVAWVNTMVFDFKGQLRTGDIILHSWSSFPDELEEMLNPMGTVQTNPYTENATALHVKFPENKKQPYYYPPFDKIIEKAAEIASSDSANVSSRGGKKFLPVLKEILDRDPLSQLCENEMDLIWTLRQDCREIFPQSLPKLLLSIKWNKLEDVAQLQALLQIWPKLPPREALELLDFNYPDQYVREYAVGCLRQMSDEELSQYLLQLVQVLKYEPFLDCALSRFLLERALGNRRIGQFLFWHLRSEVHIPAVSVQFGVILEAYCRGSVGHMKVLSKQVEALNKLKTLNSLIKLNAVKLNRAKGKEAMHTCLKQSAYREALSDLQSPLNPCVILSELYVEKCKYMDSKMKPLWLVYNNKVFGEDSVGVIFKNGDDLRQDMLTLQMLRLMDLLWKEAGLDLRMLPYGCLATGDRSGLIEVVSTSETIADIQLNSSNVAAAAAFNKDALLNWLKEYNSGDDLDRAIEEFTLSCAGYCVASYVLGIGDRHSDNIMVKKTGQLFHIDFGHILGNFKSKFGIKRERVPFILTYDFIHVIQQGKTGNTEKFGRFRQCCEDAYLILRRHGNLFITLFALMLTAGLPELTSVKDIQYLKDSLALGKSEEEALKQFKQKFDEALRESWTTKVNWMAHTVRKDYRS
T1 sequence (P27986 whole entry partner): as the sequence (P27986 whole entry partner) above

| clearance [1] [mL/min/kg] | bioavailability [1] [%] | IC50 ([2]; Homo sapiens, T47D, 72 h) [µM] | IC50 [3] [µM] | IC50 ([4]; Homo sapiens) [µM] | IC50 [6] [nM] | Compound | IC50 [5] [nM] | IC50 [7] [nM] | Cmax [1, 9] [ng/mL] | MRT [1, 9] [h] | IC50 [2] [µM] | IC50 [4] [µM] | IC50 ([2]; Homo sapiens) [µM] | bioavailability [8] [%] | clearance [8] [mL/min/kg] |
| --- | --- | --- | --- | --- | --- | --- | --- | --- | --- | --- | --- | --- | --- | --- | --- |
| 3.75 | 58.2 | 0.064 | 0.13 | > 10 | > 10000 | Cc1cc([C@@H](C)Nc2ccccc2C(=O)O)c2oc(-c3ccc(-c4cnn(C)c4)nc3)c(C)c(=O)c2c1 [Example 150, (R)-2-((1-(3,6-dimethyl-2-(6-(1-methyl-H-pyrazol-4-yl)pyridin-3-yl)-4-oxo-41-chromen-8-yl)ethyl)amino)benzoic acid] | 2370 | 25 |  |  |  |  |  |  |  |
| 34 | 45.5 | 0.04 | 0.05 | 8.5 | 545 | Cc1cc([C@@H](C)Nc2ccccc2C(=O)O)c2oc(-c3ccc4nn(C)cc4c3)cc(=O)c2c1 (single isomer, unassigned) [Example 38B] | 1290 | 25 |  |  |  |  |  |  |  |
|  |  |  |  |  |  | (R)-2-((1-(6-methyl-2-(41-methyl-1H-pyrazol-4-yl)phenyl)-4-oxo-4H-chromen-8-yl)ethyl)amino)benzoic acid [Example 95A] | 1260 | 12 | 102 | 7.64 | 0.09 | > 10 |  |  |  |

| Compound | clearance [1] [mL/min/kg] | bioavailability [1] [%] | IC50 ([2]; Homo sapiens, T47D, 72 h) [µM] | IC50 [3] [µM] | IC50 ([4]; Homo sapiens) [µM] | IC50 [6] [nM] | IC50 [5] [nM] | IC50 [7] [nM] | Cmax [1, 9] [ng/mL] | MRT [1, 9] [h] | IC50 [2] [µM] | IC50 [4] [µM] | IC50 ([2]; Homo sapiens) [µM] | bioavailability [8] [%] | clearance [8] [mL/min/kg] |
| --- | --- | --- | --- | --- | --- | --- | --- | --- | --- | --- | --- | --- | --- | --- | --- |
| Cc1cc([C@@H](C)Nc2ccccc2C(=O)O)c2oc(-c3ccc(CN4CCN(C)CC4)cc3)c(C)c(=O)c2c1 [Example 147, 2-[[(1R)-1-[3,6-dimethyl-2-[4-[(4-methylpiperazin-1-yl)methyl]phenyl]-4-oxo-chromen-8-yl]ethyl]amino]benzoic acid] |  |  |  |  | > 10 | > 10000 | 6130 | 46.5 |  |  |  |  | 0.055 | 46.5 | 10.9 |
